The text below walks through data of ChEMBL document CHEMBL1201862, “PubChem BioAssay data set” (2004).

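Test compounds were applied to cells in 96-well plates for 48 hours at 5 doses. Abbreviation: GI50, concentration required for 50% inhibition of growth.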 Calls of active or inactive are those of the source. Cut-off read from the data, not from the text of the source: active = GI50 up to about 1.1 µM and inactive = higher.

Among the test systems are RPMI-8226; MDA-MB-231; HT-29; UACC-62; 786-0; KM12; UO-31; OVCAR-8; NCI-H522; K562; SF-539; IGROV-1; SNB-75; MCF7; SF-295; SN12C; HOP-92; HCT-116; LOX IMVI; HCC 2998.
Common to all, as to test: growth of human tumour cells (NCI), 48 h

As to `Cc1ccc(NC(=O)COc2ccc(Cl)cc2)cc1Cl`, the GI50 with RPMI-8226 is 87.5 µM (inactive); with MDA-MB-231 it was 15.2 µM (inactive); in the experiment on HT-29, > 100 µM (inactive); in the experiment with UACC-62 it was 53.3 µM (inactive); in the experiment on 786-0 it was 44.5 µM (inactive); in the experiment with KM12, > 100 µM (inactive). The GI50 with UO-31 is 30.3 µM (inactive); in the experiment with OVCAR-8 it was 28.9 µM (inactive); in the experiment with NCI-H522, 75.7 µM (inactive); in the experiment on K562, > 100 µM (inactive); in the experiment on SF-539 it was 83.6 µM (inactive); with IGROV-1, 36.5 µM (inactive). In addition, the GI50 was 59 µM (inactive) with SNB-75; > 100 µM (inactive) with MCF7; 50.5 µM (inactive) in the experiment with SF-295; 38.2 µM (inactive) in the experiment on SN12C; 51.8 µM (inactive) in the experiment on HOP-92; 14.4 µM (inactive) in the experiment with HCT-116. Also, in the experiment on LOX IMVI, the GI50 was 82 µM (inactive).
Take `O=C1c2c(O)cc(O)cc2C(C2OC(CO)C(O)C(O)C2O)c2cc(CO)cc(O)c21` (centres undefined): the GI50 in the experiment on RPMI-8226, with MDA-MB-231, in the experiment with HT-29, with UACC-62, in the experiment with 786-0 and in the experiment on UO-31 was > 100 µM (inactive) each time. The GI50 with OVCAR-8 is > 100 µM (inactive); in the experiment with K562 it was > 100 µM (inactive); in the experiment with IGROV-1, > 100 µM (inactive); with SNB-75, 22.5 µM (inactive); in the experiment on HCC 2998, > 100 µM (inactive); in the experiment with MCF7 it was > 100 µM (inactive). The GI50 in the experiment with SF-295, with SN12C, in the experiment on HOP-92 and in the experiment with HCT-116 was > 100 µM (inactive) throughout.
Turning to `Cc1n[nH]/c(=N\S(=O)(=O)c2ccc(/N=N/c3c(O)c(C(=O)O)cc4ccccc34)cc2)s1`, the GI50 in the experiment with RPMI-8226, with MDA-MB-231, in the experiment with HT-29, with UACC-62, with 786-0 and with KM12 was > 100 µM (inactive) each time. Further, the GI50 in the experiment on UO-31, in the experiment on OVCAR-8, in the experiment with NCI-H522, in the experiment with K562, with SF-539 and in the experiment with IGROV-1 was > 100 µM (inactive) each time. In addition, the GI50 in the experiment on SNB-75, in the experiment with HCC 2998, in the experiment on MCF7, in the experiment with SF-295, in the experiment on SN12C and with HOP-92 was > 100 µM (inactive) each time. In addition, the GI50 in the experiment on HCT-116 is > 100 µM (inactive).
Consider `N#Cc1c(-c2ccc(Cl)cc2)[nH]c(=O)n(C2OC(CO)C(O)C(O)C2O)c1=O` (centres undefined), for which the GI50 in the experiment with RPMI-8226, in the experiment with MDA-MB-231, in the experiment with HT-29, in the experiment with UACC-62, in the experiment with 786-0 and in the experiment with KM12 was > 100 µM (inactive) each time. The GI50 was > 100 µM (inactive) with UO-31; > 100 µM (inactive) with OVCAR-8; > 100 µM (inactive) in the experiment with NCI-H522; > 100 µM (inactive) with K562; > 100 µM (inactive) in the experiment on SF-539; 22.6 µM (inactive) in the experiment with IGROV-1. Also, the GI50 in the experiment with SNB-75 is 43.2 µM (inactive); with HCC 2998, > 100 µM (inactive); in the experiment with MCF7, > 100 µM (inactive); in the experiment with SF-295 it was > 100 µM (inactive); with SN12C, > 100 µM (inactive); with HOP-92, 26.2 µM (inactive). Further, the GI50 in the experiment with HCT-116 was > 100 µM (inactive).
Turning to `CCC(C(=O)c1cccs1)C(O)(C(F)(F)F)C(F)(F)F` (centres undefined), the GI50 in the experiment on RPMI-8226, in the experiment on MDA-MB-231, in the experiment on HT-29, with UACC-62, in the experiment with 786-0 and in the experiment on KM12 was > 100 µM (inactive) throughout. In addition, the GI50 with UO-31, in the experiment with OVCAR-8, in the experiment on NCI-H522, in the experiment on K562, with SF-539 and in the experiment on IGROV-1 was > 100 µM (inactive) in each case. In addition, the GI50 in the experiment on SNB-75, in the experiment on MCF7, with SF-295, in the experiment with SN12C, in the experiment on HOP-92 and with HCT-116 was > 100 µM (inactive) in each case. Moreover, in the experiment on LOX IMVI, the GI50 was > 100 µM (inactive).
In the case of `COC(=O)C(C)(C)OCc1ccc(C2NC(=O)N(c3cccc(Cl)c3)C(=O)N2c2cccc(Cl)c2)cc1` (centres undefined), the GI50 in the experiment with RPMI-8226 was 9.16 µM (inactive); in the experiment on MDA-MB-231, 55 µM (inactive); in the experiment with HT-29 it was 26.1 µM (inactive); in the experiment on UACC-62, 36.6 µM (inactive); in the experiment on 786-0 it was 40.9 µM (inactive); with KM12, 23.7 µM (inactive). Moreover, the GI50 in the experiment with UO-31 was 25.3 µM (inactive); in the experiment with OVCAR-8, 32.6 µM (inactive); in the experiment on NCI-H522, 10.6 µM (inactive); with K562, 7.45 µM (inactive); in the experiment on SF-539, 50.1 µM (inactive); with IGROV-1, 22 µM (inactive). Further, the GI50 in the experiment on SNB-75 is 0.34 µM (active); in the experiment on HCC 2998, 40.6 µM (inactive); with MCF7 it was 35.7 µM (inactive); with SF-295, 31 µM (inactive); in the experiment on SN12C, 29.2 µM (inactive); in the experiment on HOP-92, 15.1 µM (inactive). Also, in the experiment with HCT-116, the GI50 was 36.6 µM (inactive).
Consider `CC[C@]12C=CCN3CC[C@@]4(c5cc(Br)c(OC)cc5N(C)[C@H]4[C@@](O)(C(=O)NC(Cc4c[nH]c5ccccc45)C(=O)OC)[C@@H]1O)[C@@H]32` (some centres undefined), for which the GI50 in the experiment on RPMI-8226 was 2.94 µM (inactive); with MDA-MB-231, 30.6 µM (inactive); in the experiment with HT-29, 7.89 µM (inactive); in the experiment with UACC-62, 24.3 µM (inactive); in the experiment with 786-0, 45.5 µM (inactive); in the experiment with KM12 it was 11 µM (inactive). The GI50 in the experiment with UO-31 is 20.8 µM (inactive); with OVCAR-8 it was 6.59 µM (inactive); with NCI-H522, 8.83 µM (inactive); in the experiment with K562 it was 5.37 µM (inactive); in the experiment with SF-539 it was 16.4 µM (inactive); in the experiment on IGROV-1, 19.4 µM (inactive). For the same molecule, the GI50 was > 100 µM (inactive) in the experiment on SNB-75; 12.3 µM (inactive) in the experiment with MCF7; 9.46 µM (inactive) in the experiment on SF-295; 29.4 µM (inactive) in the experiment with SN12C; 22.3 µM (inactive) in the experiment on HOP-92; 7.08 µM (inactive) with HCT-116. Also, in the experiment on LOX IMVI, the GI50 is 4.6 µM (inactive).
On to `CN(C)CCCN1c2ccc(O)cc2Sc2ccc(Cl)cc21` [7-HYDROXYCHLORPROMAZINE], for which the GI50 in the experiment with RPMI-8226 was 4.5 µM (inactive); in the experiment with MDA-MB-231, 10.9 µM (inactive); with HT-29 it was 3.48 µM (inactive); in the experiment with UACC-62 it was 9.91 µM (inactive); with 786-0, 11.1 µM (inactive); in the experiment on KM12, 10.5 µM (inactive). For the same molecule, the GI50 with UO-31 is 9.53 µM (inactive); with OVCAR-8, 16 µM (inactive); with NCI-H522, 11.4 µM (inactive); with K562 it was 3.86 µM (inactive); with SF-539 it was 14.6 µM (inactive); in the experiment on IGROV-1 it was 9.84 µM (inactive). For the same molecule, the GI50 in the experiment on SNB-75 was 8.63 µM (inactive); in the experiment on MCF7, 13.2 µM (inactive); with SF-295, 15.3 µM (inactive); with SN12C, 10.3 µM (inactive); in the experiment with HOP-92, 4.25 µM (inactive); in the experiment on HCT-116 it was 6.3 µM (inactive). For the same molecule, in the experiment on LOX IMVI, the GI50 was 6.71 µM (inactive).
